Measurements reported in patent publication US20090069319A1, “IMIDAZOPYRIDINE ANALOGS AND THEIR USE AS AGONISTS OF THE WNT-BETA-CATENIN CELLULAR MESSAGING SYSTEM” (Wyeth, priority 2007, published 2009).

Assay: Functional Dkk1-LRP5-TCF-Luciferase Assay in U2OS Cells (table columns: A=MAX FOLD Induction/DMSO CONTROL; B=fold induction @ 2.0 uM; C=fold induction @ 20.0 uM)
Type: cell-based, Human
Settings: Homo sapiens, U2OS; for fold induction at 2 µM: 2.0 uM compound; for fold induction at 20 µM: 20.0 uM compound
Procedure: Biological Evaluation—Functional Dkk1-LRP5-TCF-Luciferase Assay in U2OS Cells
U2OS Human Bone derived cells (Osteosarcoma) are grown in McCoy's 5A Medium (Modified), with L-glutamine (GIBCO Cat No. 16600-082)+1% Pen-Strep+5% FBS) plated at 1×10^7 cells/T175 cm flask. The next day, the cells are co-transfected overnight with the following plasmids: (a) Test reporter (16×TCF-TK-FireFly-Luci), (b) Internal Control Reporter (TK-Renilla-Luci), (c) Wnt3a and (d) Dkk1. GIBCO's Lipofectamine 2000 and OptiMEM were used for the transfection. After a minimum of 4 hr of transfection at 37° C., the plasmid-transfected cells are trypsinized, counted, and suspended in freezing medium (95% FBS+5% DMSO). The reporter cells are frozen at 1×10^7/ml concentrations, aliquoted into 0.5 ml or 2.5 ml/tube and stored at −70° C.
The following day, test compounds are added under HTS setup by Plate Track into 384 well plates (white, TC treated, Falcon plate) such that the final concentration of the compounds in 20 μL/well cell will be 5 μg/ml (final concentration of DMSO=0.25% and final compound concentration=20 μM). Vials of frozen reporter cells are thawed by warming the vial in a 37° C. water bath for 60-120 seconds with some shaking until the cells formed a suspension. The thawed cells are transferred into a cold 50 ml (or larger) tube and mixed well by gentle pipetting. The appropriate amount of cold Phenol Red Free RPMI medium-1640 (GIBCO, Cat # 11835-030) with L-glutamine is added, both with ˜5% FBS (GIBCO-BRL, Cat. # 16000-044), so that 20 μl of the final cell suspension will contain ˜5,000 cells. The cell dilution is done such that the final concentration of FBS was ˜5%. Diluted cells (20 μl) are added into each well in a 384 well plate. The plate is incubated at 37° C. under 5% CO2 for ˜20 h. Bright-Glo substrate, 2.5 μl/well is added, and the Fire Fly Luciferase is measured using VLUX (60 second exposure) immediately after the substrate was added. Test compounds are dissolved in DMSO (100%) and added to specified wells. Raw luciferase signal data obtained as relative luminescence units (RLUs) for the test compounds are normalized to the signal of the mean of the sample reporter cell plate with DMSO.
Active compounds have TCF-luciferase ratios of 2.5 fold or greater over DMSO. All compounds show a signal increase of at least 10% compared to a signal with only DMSO added.
A=MAX FOLD Induction/DMSO CONTROL
B=TCF ACTIVITY/DMSO CONTROL Fold induction @ 2.0 uM C=TCF ACTIVITY/DMSO CONTROL Fold induction @ 20.0 uM

SMILES: COc1cc(-c2nc3c(-c4ccc5ccccc5c4)ccnc3n2C2CCNCC2)ccc1O [2-methoxy-4-[7-(2-naphthyl)-3-piperidin-4-yl-3H-imidazo[4,5-b]pyridin-2-yl]phenol]
- fold induction at 2 µM: 1.63
- fold induction at 20 µM: 0.01

SMILES: Cc1nc(-c2nc3c(-c4ccc5ccccc5c4)ccnc3n2C2CCNCC2)c[nH]1 [2-(2-methyl-1H-imidazol-4-yl)-7-(2-naphthyl)-3-piperidin-4-yl-3H-imidazo[4,5-b]pyridine]
- fold induction at 2 µM: 1.04
- fold induction at 20 µM: 0.02

SMILES: CN(C)C(=O)N1CCC(n2c(=O)n(C)c3c(-c4ccc5ccccc5c4)ccnc32)CC1 [N,N-dimethyl-4-[1-methyl-7-(2-naphthyl)-2-oxo-1,2-dihydro-3H-imidazo[4,5-b]pyridin-3-yl]piperidine-1-carboxamide]
- fold induction at 2 µM: 1.19
- fold induction at 20 µM: 0.35

SMILES: c1ccc2cc(-c3cnc4c(c3)nc(-c3ccc5ccccc5c3)n4C3CCNCC3)ccc2c1 [2,6-di-2-naphthyl-3-piperidin-4-yl-3H-imidazo[4,5-b]pyridine]
- fold induction at 2 µM: 1.06

SMILES: Clc1cccc(-c2nc3c(-c4ccc5ccccc5c4)ccnc3n2C2CCNCC2)c1 [2-(3-chlorophenyl)-7-(2-naphthyl)-3-piperidin-4-yl-3H-imidazo[4,5-b]pyridine]
- fold induction at 2 µM: 1.5

SMILES: c1ccc2cc(-c3ccnc4c3nc(-c3ccc5ccccc5n3)n4C3CCNCC3)ccc2c1 [2-[7-(2-naphthyl)-3-piperidin-4-yl-3H-imidazo[4,5-b]pyridin-2-yl]quinoline]
- fold induction at 2 µM: 0.01
- fold induction at 20 µM: 1.01

SMILES: c1ccc2cc(-c3cnc4c(c3)nc(-c3ccc5occc5c3)n4C3CCNCC3)ccc2c1 [2-(1-benzofuran-5-yl)-6-(2-naphthyl)-3-piperidin-4-yl-3H-imidazo[4,5-b]pyridine]
- fold induction at 2 µM: 0.98

SMILES: c1ccc2cc(-c3ccnc4c3ncn4C3CNC3)ccc2c1 [3-azetidin-3-yl-7-(2-naphthyl)-3H-imidazo[4,5-b]pyridine]
- fold induction at 2 µM: 1.49
- fold induction at 20 µM: 1.25

SMILES: Cc1ccc(CCn2c(C)nc3c(-c4ccc5ccccc5c4)ccnc32)cc1 [2-methyl-3-[2-(4-methylphenyl)ethyl]-7-(2-naphthyl)-3H-imidazo[4,5-b]pyridine]
- fold induction at 2 µM: 0.82
- fold induction at 20 µM: 1

SMILES: CC(C)c1nc2cc(-c3ccc4ccccc4c3)cnc2n1C1CCNCC1 [2-isopropyl-6-(2-naphthyl)-3-piperidin-4-yl-3H-imidazo[4,5-b]pyridine]
- fold induction at 2 µM: 1.44

SMILES: c1ccc2cc(-c3ccnc4c3nc(-c3ccnc5ccccc35)n4C3CCNCC3)ccc2c1 [4-[7-(2-naphthyl)-3-piperidin-4-yl-3H-imidazo[4,5-b]pyridin-2-yl]quinoline]
- fold induction at 2 µM: 1.07

SMILES: c1ccc2cc(-c3ccnc4c3nc(-c3ccc5c(c3)OCO5)n4C3CCNCC3)ccc2c1 [2-(1,3-benzodioxol-5-yl)-7-(2-naphthyl)-3-piperidin-4-yl-3H-imidazo[4,5-b]pyridine]
- fold induction at 2 µM: 1.36

SMILES: c1ccc(N(c2ccccc2)c2ccc(-c3nc4c(-c5ccc6ccccc6c5)ccnc4n3C3CCNCC3)cc2)cc1 [4-[7-(2-naphthyl)-3-piperidin-4-yl-3H-imidazo[4,5-b]pyridin-2-yl]-N,N-diphenylaniline]
- fold induction at 2 µM: 1.89

SMILES: c1cncc(-c2nc3c(-c4ccc5ccccc5c4)ccnc3n2C2CCNCC2)c1 [7-(2-naphthyl)-3-piperidin-4-yl-2-pyridin-3-yl-3H-imidazo[4,5-b]pyridine]
- fold induction at 2 µM: 1.21

SMILES: c1ccc2cc(-c3cnc4c(c3)nc(-c3cccc5ncccc35)n4C3CCNCC3)ccc2c1 [5-[6-(2-naphthyl)-3-piperidin-4-yl-3H-imidazo[4,5-b]pyridin-2-yl]quinoline]
- fold induction at 2 µM: 1.29

SMILES: COc1ccc2[nH]cc(-c3nc4c(-c5ccc6ccccc6c5)ccnc4n3C3CCNCC3)c2c1 [2-(5-methoxy-1H-indol-3-yl)-7-(2-naphthyl)-3-piperidin-4-yl-3H-imidazo[4,5-b]pyridine]
- fold induction at 2 µM: 1.2

SMILES: c1ccc2cc(-c3ccnc4c3nc(-c3ccc5occc5c3)n4C3CCNCC3)ccc2c1 [2-(1-benzofuran-5-yl)-7-(2-naphthyl)-3-piperidin-4-yl-3H-imidazo[4,5-b]pyridine]
- fold induction at 2 µM: 0.9
- fold induction at 20 µM: 1.02

SMILES: Cc1ccc(-c2nc3c(-c4ccc5ccccc5c4)ccnc3n2C2CCNCC2)cc1 [2-(4-methylphenyl)-7-(2-naphthyl)-3-piperidin-4-yl-3H-imidazo[4,5-b]pyridine]
- fold induction at 2 µM: 1.9

SMILES: Clc1cccc(-c2nc3cc(-c4ccc5ccccc5c4)cnc3n2C2CCNCC2)c1 [2-(3-chlorophenyl)-6-(2-naphthyl)-3-piperidin-4-yl-3H-imidazo[4,5-b]pyridine]
- fold induction at 2 µM: 0.98

SMILES: Cc1nc2c(-c3ccc4ccccc4c3)ccnc2n1C1CNC1 [3-azetidin-3-yl-2-methyl-7-(2-naphthyl)-3H-imidazo[4,5-b]pyridine]
- fold induction at 2 µM: 1.16
- fold induction at 20 µM: 0.76

SMILES: C=Cc1cccc(-c2nc3c(-c4ccc5ccccc5c4)ccnc3n2C2CCNCC2)c1 [7-(2-naphthyl)-3-piperidin-4-yl-2-(3-vinylphenyl)-3H-imidazo[4,5-b]pyridine]
- fold induction at 2 µM: 1.44

SMILES: CN(C)S(=O)(=O)N1CCC(n2cnc3c(-c4ccc5ccccc5c4)ccnc32)CC1 [N,N-dimethyl-4-[7-(2-naphthyl)-3H-imidazo[4,5-b]pyridin-3-yl]piperidine-1-sulfonamide]
- fold induction at 2 µM: 1.19
- fold induction at 20 µM: 1.46

SMILES: Fc1ccc(-c2nc3c(-c4ccc5ccccc5c4)ccnc3n2C2CCNCC2)c(F)c1 [2-(2,4-difluorophenyl)-7-(2-naphthyl)-3-piperidin-4-yl-3H-imidazo[4,5-b]pyridine]
- fold induction at 2 µM: 1.42

SMILES: Oc1ccccc1-c1nc2c(-c3ccc4ccccc4c3)ccnc2n1C1CCNCC1 [2-[7-(2-naphthyl)-3-piperidin-4-yl-3H-imidazo[4,5-b]pyridin-2-yl]phenol]
- fold induction at 2 µM: 1.35
- fold induction at 20 µM: 0.01

SMILES: c1ccc2cc(-c3ccnc4c3nc(-c3cccc5ncccc35)n4C3CCNCC3)ccc2c1 [5-[7-(2-naphthyl)-3-piperidin-4-yl-3H-imidazo[4,5-b]pyridin-2-yl]quinoline]
- fold induction at 2 µM: 1.33

SMILES: CC(C)c1ccc(-c2nc3c(-c4ccc5ccccc5c4)ccnc3n2C2CCNCC2)cc1 [2-(4-isopropylphenyl)-7-(2-naphthyl)-3-piperidin-4-yl-3H-imidazo[4,5-b]pyridine]
- fold induction at 2 µM: 1.03

SMILES: O=[N+]([O-])c1cccc(-c2nc3c(-c4ccc5ccccc5c4)ccnc3n2C2CCNCC2)c1 [7-(2-naphthyl)-2-(3-nitrophenyl)-3-piperidin-4-yl-3H-imidazo[4,5-b]pyridine]
- fold induction at 2 µM: 1.29

SMILES: CC(C)Cc1nc2cc(-c3ccc4ccccc4c3)cnc2n1C1CCNCC1 [2-isobutyl-6-(2-naphthyl)-3-piperidin-4-yl-3H-imidazo[4,5-b]pyridine]
- fold induction at 2 µM: 1.13

SMILES: Cn1c(=O)n(C2CCN(C(=O)N3CCOCC3)CC2)c2nccc(-c3ccc4ccccc4c3)c21 [1-methyl-3-[1-(morpholin-4-ylcarbonyl)piperidin-4-yl]-7-(2-naphthyl)-1,3-dihydro-2H-imidazo[4,5-b]pyridin-2-one]
- fold induction at 2 µM: 1.29
- fold induction at 20 µM: 0.21

SMILES: Oc1cccc(-c2nc3c(-c4ccc5ccccc5c4)ccnc3n2C2CCNCC2)c1 [3-[7-(2-naphthyl)-3-piperidin-4-yl-3H-imidazo[4,5-b]pyridin-2-yl]phenol]
- fold induction at 2 µM: 1.58

SMILES: c1c[nH]c(-c2nc3c(-c4ccc5ccccc5c4)ccnc3n2C2CCNCC2)c1 [7-(2-naphthyl)-3-piperidin-4-yl-2-(1H-pyrrol-2-yl)-3H-imidazo[4,5-b]pyridine]
- fold induction at 2 µM: 1.25

SMILES: c1ccc2cc(-c3ccnc4c3nc(-c3ccsc3)n4C3CCNCC3)ccc2c1 [7-(2-naphthyl)-3-piperidin-4-yl-2-(3-thienyl)-3H-imidazo[4,5-b]pyridine]
- fold induction at 2 µM: 1.17
- fold induction at 20 µM: 0.01

SMILES: CC(C)Cc1nc2c(-c3ccc4ccccc4c3)ccnc2n1C1CCNCC1 [2-isobutyl-7-(2-naphthyl)-3-piperidin-4-yl-3H-imidazo[4,5-b]pyridine]
- fold induction at 2 µM: 1.05

SMILES: COc1ccc2ccccc2c1-c1nc2c(-c3ccc4ccccc4c3)ccnc2n1C1CCNCC1 [2-(2-methoxy-1-naphthyl)-7-(2-naphthyl)-3-piperidin-4-yl-3H-imidazo[4,5-b]pyridine]
- fold induction at 2 µM: 1.17
